Results published in ChEMBL document CHEMBL5505997, “Synthesis and biological evaluation of novel peptidomimetic inhibitors of the coronavirus 3C-like protease” (Eur J Med Chem, 2024).

What was measured:
[1] = tested on: SARS-CoV-2; test: Antiviral activity against SARS-CoV-2 WA1 harboring NSP5 E166V mutant infected in HEK293T cells measured after 48 hrs by Nano-Glo luciferase assay; type: functional, organism-based, Severe acute respiratory syndrome coronavirus 2
[2] = tested on: SARS-CoV-2; test: Antiviral activity against SARS-CoV-2 WA1 harboring NSP5 L50F/E166A/L167F mutant infected in HEK293T cells measured after 48 hrs by Nano-Glo luciferase assay; type: functional, organism-based, Severe acute respiratory syndrome coronavirus 2
[3] = tested on: SARS-CoV-2; test: Selectivity ratio of EC50 for antiviral activity against SARS-CoV-2 Omicron BA.1 harboring NSP5 E166V mutant infected in HEK293T cells to EC50 for antiviral activity against wild type SARS-CoV-2 Omicron BA.1 infected in HEK293T cells; type: functional
[4] = tested on: SARS-CoV-2; test: Selectivity ratio of EC50 for antiviral activity against SARS-CoV-2 WA1 harboring NSP5 E166V mutant infected in HEK293T cells to EC50 for antiviral activity against wild type SARS-CoV-2 WA1 infected in HEK293T cells; type: functional
[5] = tested on: SARS-CoV-2; test: Selectivity ratio of EC50 for antiviral activity against SARS-CoV-2 WA1 harboring NSP5 L50F/E166V mutant infected in HEK293T cells to EC50 for antiviral activity against wild type SARS-CoV-2 WA1 infected in HEK293T cells; type: functional
[6] = tested on: SARS-CoV-2; test: Antiviral activity against SARS-CoV-2 Omicron BA.1 harboring NSP5 E166V mutant infected in HEK293T cells measured after 48 hrs by Nano-Glo luciferase assay; type: functional, organism-based, Severe acute respiratory syndrome coronavirus 2
[7] = tested on: SARS-CoV-2; test: Selectivity ratio of EC50 for antiviral activity against SARS-CoV-2 Omicron BA.1 harboring NSP5 L50F/E166V mutant infected in HEK293T cells to EC50 for antiviral activity against wild type SARS-CoV-2 Omicron BA.1 infected in HEK293T cells; type: functional
[8] = tested on: SARS-CoV-2; test: Antiviral activity against SARS-CoV-2 Omicron BA.1 harboring NSP5 L50F/E166V mutant infected in HEK293T cells measured after 48 hrs by Nano-Glo luciferase assay; type: functional, organism-based, Severe acute respiratory syndrome coronavirus 2
[9] = tested on: SARS-CoV-2; test: Antiviral activity against SARS-CoV-2 WA1 harboring NSP5 L50F/E166V mutant infected in HEK293T cells measured after 48 hrs by Nano-Glo luciferase assay; type: functional, organism-based, Severe acute respiratory syndrome coronavirus 2
[10] = tested on: SARS-CoV-2; test: Selectivity ratio of EC50 for antiviral activity against SARS-CoV-2 WA1 harboring NSP5 L50F/E166A/L167F mutant infected in HEK293T cells to EC50 for antiviral activity against wild type SARS-CoV-2 WA1 infected in HEK293T cells; type: functional
[11] = tested on: SARS-CoV-2; test: Antiviral activity against SARS-CoV-2 Omicron BA.1 harboring NSP5 L50F/E166A/L167F mutant infected in HEK293T cells measured after 48 hrs by Nano-Glo luciferase assay; type: functional, organism-based, Severe acute respiratory syndrome coronavirus 2
[12] = tested on: SARS-CoV-2; test: Selectivity ratio of EC50 for antiviral activity against SARS-CoV-2 Omicron BA.1 harboring NSP5 L50F/E166A/L167F mutant infected in HEK293T cells to EC50 for antiviral activity against wild type SARS-CoV-2 Omicron BA.1 infected in HEK293T cells; type: functional
[13] = tested on: SARS-CoV-2; test: Antiviral activity against SARS-CoV-2 Omicron BA.1 harboring NSP5 T21I/E166V mutant infected in HEK293T cells measured after 48 hrs by Nano-Glo luciferase assay; type: functional, organism-based, Severe acute respiratory syndrome coronavirus 2
[14] = tested on: SARS-CoV-2; test: Antiviral activity against SARS-CoV-2 Omicron BA.1 harboring NSP5 T21I mutant infected in HEK293T cells measured after 48 hrs by Nano-Glo luciferase assay; type: functional, organism-based, Severe acute respiratory syndrome coronavirus 2
[15] = tested on: SARS-CoV-2; test: Selectivity ratio of EC50 for antiviral activity against SARS-CoV-2 WA1 harboring NSP5 T21I/E166V mutant infected in HEK293T cells to EC50 for antiviral activity against wild type SARS-CoV-2 WA1 infected in HEK293T cells; type: functional
[16] = tested on: SARS-CoV-2; test: Selectivity ratio of EC50 for antiviral activity against SARS-CoV-2 Omicron BA.1 harboring NSP5 T21I/E166V mutant infected in HEK293T cells to EC50 for antiviral activity against wild type SARS-CoV-2 Omicron BA.1 infected in HEK293T cells; type: functional
[17] = tested on: SARS-CoV-2; test: Selectivity ratio of EC50 for antiviral activity against SARS-CoV-2 Omicron BA.1 harboring NSP5 T21I mutant infected in HEK293T cells to EC50 for antiviral activity against wild type SARS-CoV-2 Omicron BA.1 infected in HEK293T cells; type: functional
[18] = tested on: SARS-CoV-2; test: Selectivity ratio of EC50 for antiviral activity against SARS-CoV-2 WA1 harboring NSP5 T21I mutant infected in HEK293T cells to EC50 for antiviral activity against wild type SARS-CoV-2 WA1 infected in HEK293T cells; type: functional
[19] = tested on: SARS-CoV-2; test: Antiviral activity against SARS-CoV-2 WA1 harboring NSP5 T21I mutant infected in HEK293T cells measured after 48 hrs by Nano-Glo luciferase assay; type: functional, organism-based, Severe acute respiratory syndrome coronavirus 2
[20] = tested on: SARS-CoV-2; test: Antiviral activity against SARS-CoV-2 WA1 harboring NSP5 T21I/E166V mutant infected in HEK293T cells measured after 48 hrs by Nano-Glo luciferase assay; type: functional, organism-based, Severe acute respiratory syndrome coronavirus 2

SMILES | EC50 [1] | EC50 [2] | Ratio EC50 [3] | Ratio EC50 [4] | Ratio EC50 [5] | EC50 [6] | Ratio EC50 [7] | EC50 [8] | EC50 [9] | Ratio EC50 [10] | EC50 [11] | Ratio EC50 [12] | EC50 [13] | EC50 [14] | Ratio EC50 [15] | Ratio EC50 [16] | Ratio EC50 [17] | Ratio EC50 [18] | EC50 [19] | EC50 [20]
CCC(CC)COC(=O)[C@H](C)N[P@](=O)(OC[C@H]1O[C@@](C#N)(c2ccc3c(N)ncnn23)[C@H](O)[C@@H]1O)Oc1ccccc1 | 11 nM | 11 nM | 0.4 | 1.1 | 0.7 | 6 nM | 0.4 | 6 nM | 7 nM | 1.1 | 9 nM | 0.7 | – | – | – | – | – | – | – | –
Cc1cc(C(=O)N[C@@H](Cc2cccc3ccccc23)C(=O)N[C@@H](CC(C)C)C(=O)N[C@H](C=O)C[C@@H]2CCCNC2=O)no1 | 130 nM | 390 nM | 0.2 | 0.6 | 0.9 | 80 nM | 0.5 | 150 nM | 170 nM | 2 | 490 nM | 1.5 | 150 nM | 680 nM | 0.8 | 0.5 | 2.1 | 1.8 | 360 nM | 170 nM
CC(C)(C)[C@H](NC(=O)C(F)(F)F)C(=O)N1C[C@H]2[C@@H]([C@H]1C(=O)N[C@H](C#N)C[C@@H]1CCNC1=O)C2(C)C | 4500 nM | 610 nM | – | – | – | 7300 nM | – | 8600 nM | 3900 nM | – | 2900 nM | – | 12000 nM | 280 nM | – | – | – | – | 80 nM | 8500 nM
